Target: T1, human recombinant PRMT9 (Homo sapiens, UniProt Q6P2P2)
T1 construct: human recombinant PRMT9 (2–845; N-terminal FLAG-tag, C-terminal His6-tag); FLAG (N); His6 (C); purchased BPS BioScience 79124
T1 sequence (Q6P2P2 2-845): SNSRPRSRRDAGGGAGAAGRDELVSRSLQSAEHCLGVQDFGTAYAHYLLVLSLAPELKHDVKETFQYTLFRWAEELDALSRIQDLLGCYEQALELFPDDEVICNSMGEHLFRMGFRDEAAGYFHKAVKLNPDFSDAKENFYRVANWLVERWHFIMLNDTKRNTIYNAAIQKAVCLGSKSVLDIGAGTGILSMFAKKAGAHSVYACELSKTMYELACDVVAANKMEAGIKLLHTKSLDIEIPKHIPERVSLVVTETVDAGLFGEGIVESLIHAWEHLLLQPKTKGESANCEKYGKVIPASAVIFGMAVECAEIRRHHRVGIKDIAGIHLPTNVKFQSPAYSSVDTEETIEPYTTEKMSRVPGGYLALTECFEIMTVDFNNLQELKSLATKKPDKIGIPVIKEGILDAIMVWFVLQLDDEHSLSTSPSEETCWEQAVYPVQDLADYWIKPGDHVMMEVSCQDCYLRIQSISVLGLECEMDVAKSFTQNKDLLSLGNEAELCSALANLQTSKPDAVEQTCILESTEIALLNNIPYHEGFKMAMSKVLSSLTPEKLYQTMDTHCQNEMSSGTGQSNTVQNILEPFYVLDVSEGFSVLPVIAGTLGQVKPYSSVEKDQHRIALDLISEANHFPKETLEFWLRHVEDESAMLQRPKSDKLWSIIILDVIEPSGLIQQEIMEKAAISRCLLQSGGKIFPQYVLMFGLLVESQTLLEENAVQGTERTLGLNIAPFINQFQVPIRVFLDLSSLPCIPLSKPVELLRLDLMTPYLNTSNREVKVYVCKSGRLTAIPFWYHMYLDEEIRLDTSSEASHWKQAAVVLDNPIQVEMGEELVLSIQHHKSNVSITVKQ
Assay: SPR binding to immobilized PRMT9
Settings: 1:1 Langmuir model, 25 °C
Method: To characterize the effect of compound 1j on PRMT9, we resolved to evaluate its direct binding to the target protein using surface plasmon resonance (SPR). To this aim, human recombinant PRMT9 (2–845; N-terminal FLAG-tag, C-terminal His6-tag) was covalently immobilized on a sensor chip surface using an amine coupling approach and compound 1j was injected over the active and reference cells at 10 different concentrations (2-fold dilution series) from 25 to 0.05 μM using the multicycle modality. Each injection was performed with an association and a dissociation time of 90 and 180 s, respectively, and with a flow rate of 30 μL/min. To reduce false positives from detergent-sensitive, nonspecific aggregation-based binding, detergents (0.05% Tween20) were added to the running buffer in all experiments. The corrected sensorgrams were fitted simultaneously by kinetic analysis using the 1:1 Langmuir model of the BIAevaluation software to obtain equilibrium dissociation constants (KD) and kinetic dissociation (koff) and association (kon) constants, and the curve-fitting efficiency was evaluated by chi-square (χ^2). The χ^2 value of 1j was calculated to be 0.650, indicating a good fit.
SPR experiments were performed on a Biacore T200 biosensor (Cytiva). […] The curve-fitting efficiency was evaluated by the chi-square (χ^2). […]

PRMT9 SPR residence time (τR = 1/koff): 500 s | Kd (KD = koff/kon): 188 nM
Compound: COC(=O)c1cc(O)c2cc(NC(=O)NCCCNC(=N)NC[C@H]3O[C@@H](n4cnc5c(N)ncnc54)[C@H](O)[C@@H]3O)cc(C(F)(F)F)c2c1 [1j, Methyl 6-(3-(3-(3-(((2R,3S,4R,5R)-5-(6-Amino-9H-purin-9-yl)-3,4-dihydroxytetrahydrofuran-2-yl)methyl)guanidino)propyl)ureido)-4-hydroxy-8-(trifluoromethyl)-2-naphthoate]

Reference: article PMC10578352, “Identification of a Protein Arginine Methyltransferase 7 (PRMT7)/Protein Arginine Methyltransferase 9 (PRMT9) Inhibitor” (Journal of Medicinal Chemistry, 2023)
